Patent US20230286969A1, “AROMATIC SPIRO RING AMIDE DERIVATIVES FOR THE TREATMENT AND PROPHYLAXIS OF HEPATITIS B VIRUS INFECTION” (Hoffmann-La Roche Inc., priority 2020, published 2023)

Experiments:
Assay type in all cases: cell-based
[1] = PHH natural infection assay, cytotoxicity (Cell Counting Kit-8); details: human, HBV-infected primary human hepatocytes, CCK8, end of treatment
Experimental: (§1) Detailed procedures regarding primary human hepatocyte (PHH) HBV natural infection assay are described as below. One tube of frozen PHH (10 million cells) is thawed in 37° C. water bath and then transferred to 20 mL of PHH thawing medium (Sigma, InVitroGRO HT Medium, Cat. S03319) with gently mixing. The cells were then centrifuged at […] for 5 min, the supernatant was discarded and the tube was refilled with 25 mL of PHH plating medium (Sigma, InVitroGRO CP Medium, Cat. S03317). The tube was shaken very gently to re-suspend all cells, and then 50 μl of cells were transferred to each well 384-well collagen I coated plate with appropriate liquid handling equipment, e.g. Integra VIAFLO384 or Agilent Bravo. The cells were then cultured for 24 hours in a cell incubator. For HBV infection, after PHH attachment on the culture plate, the plating medium was removed and replenished with PHH culture medium containing HBV virus. The PHH culture medium was prepared with Dulbecco's Modified Eagle Medium (DMEM)/F12 (1:1 in volume ratio) containing 10% fetal bovine serum (Gibco, Cat. 10099141), 5 ng/mL human epidermal growth factor (Gibco, Cat.PHG0311L), 20 ng/mL dexamethasone (Sigma, Cat.D4902-100 mg), 250 ng/mL human recombinant insulin (Gibco, Cat.41400045) and 100 U/mL penicillin. HBV virus at 200 genome equivalent (GE) per cell with 4% PEG8000 (Sigma, Cat.P1458) containing culture medium were added to the PHH culture medium for infection. The cells were then cultured for 24 hours in cell incubator. Then the cell culture supernatant was removed. The HBV-infected PHH were cultured with sandwich culture method with PHH culture medium containing 1% DMSO and 0.25 mg/mL matrix gel for 72 hours. The supernatant was then refreshed with PHH culture medium containing different concentrations of testing compounds for two times with 72-hour interval. At the end of treatment, the supernatant was collected for viral markers measurements, including HBsAg, HBeAg, HBV DNA and cytotoxicity. HBsAg and HBeAg were detected using alphalisa method using their specific antibodies. For HBV DNA detection, HBV DNA Quantitative Fluorescence Diagnostic Kit (Sansure Biotech Inc.) was used following the manufacture's protocol. Cytotoxicity was determined using Cell Counting Kit-8 (CCK8, Dojindo Molecular Technologies, Inc.).

HBsAg = test: PHH HBV natural infection assay, HBsAg (alphalisa); details: Hepatitis B virus, Hepatocyte, 72 h, read-out: HBsAg IC50, HBV-infected primary human hepatocytes, supernatant, compound medium refreshed two times with 72-hour interval
Experimental: as §1
(§2) The compounds of the present invention were tested for their capacity to inhibit HBsAg and HBeAg as described herein.

HBeAg = test: PHH HBV natural infection assay, HBeAg (alphalisa); details: Hepatitis B virus, Hepatocyte, 72 h, read-out: HbeAg IC50, HBV-infected primary human hepatocytes, supernatant, compound medium refreshed two times with 72-hour interval
Experimental: as §1, §2

With `COCCOCCOCC(=O)NS(=O)(=O)c1ccc(C(=O)N[C@H]2CC3(C2)C[C@H](c2nc4cc(Cl)ccc4o2)C3)o1` (single isomer, unassigned) [Example 79, (Sa)—N-[6-(5-chloro-1,3-benzoxazol-2-yl)spiro[3.3]heptan-2-yl]-5-[[2-[2-(2-methoxyethoxy)ethoxy]acetyl]sulfamoyl]furan-2-carboxamide, or (Ra)—N-[6-(5-chloro-1,3-benzoxazol-2-yl)spiro[3.3]heptan-2-yl]-5-[[2-[2-(2-methoxyethoxy)ethoxy]acetyl]sulfamoyl]furan-2-carboxamide] the CC50 at 144 h [1] was > 10 µM, the IC50 (HBsAg) was 6.13 µM and the IC50 (HBeAg) was 4.65 µM.
In the case of `O=C(NC1CC2(C1)CC(c1nc3cc(Cl)ccc3o1)C2)c1ccc(C(F)(F)F)o1` (stereo not drawn) [Example 1, N-[6-(5-chloro-1,3-benzoxazol-2-yl)spiro[3.3]heptan-2-yl]-5-(trifluoromethyl)furan-2-carboxamide], the CC50 at 144 h [1] is reported as 96.8 µM, the IC50 (HBsAg) is reported as 3.63 µM and the IC50 (HBeAg) is reported as 2.29 µM.
Compound `N#Cc1ccc(C(=O)NC2CC3(C2)CC(c2nc4cc(Cl)ccc4o2)C3)o1` (stereo not drawn) [Example 2, N-[6-(5-chloro-1,3-benzoxazol-2-yl)spiro[3.3]heptan-2-yl]-5-cyano-furan-2-carboxamide] has a CC50 at 144 h [1] of 61.6 µM, an IC50 (HBsAg) of 5.86 µM and an IC50 (HBeAg) of 4.06 µM.
`O=C(NC1CC2(C1)CC(c1nc3cc(Cl)ccc3o1)C2)c1ccc(Br)o1` (stereo not drawn) [Example 3, 5-bromo-N-[6-(5-chloro-1,3-benzoxazol-2-yl)spiro[3.3]heptan-2-yl]furan-2-carboxamide] showed a CC50 at 144 h [1] of 96.2 µM, an IC50 (HBsAg) of 9.79 µM and an IC50 (HBeAg) of 7.64 µM.
For `O=C(NC1CC2(C1)CC(c1nc3cc(Cl)ccc3o1)C2)c1cc(Br)co1` (stereo not drawn) [Example 4, 4-bromo-N-[6-(5-chloro-1,3-benzoxazol-2-yl)spiro[3.3]heptan-2-yl]furan-2-carboxamide], the CC50 at 144 h [1] was 56 µM, the IC50 (HBsAg) was 5.57 µM and the IC50 (HBeAg) was 2.94 µM.
Compound `O=C(NC1CC2(C1)CC(c1nc3cc(Cl)ccc3o1)C2)c1occc1Br` (stereo not drawn) [Example 5, 3-bromo-N-[6-(5-chloro-1,3-benzoxazol-2-yl)spiro[3.3]heptan-2-yl]furan-2-carboxamide] has a CC50 at 144 h [1] of 73.2 µM, an IC50 (HBsAg) of 8.19 µM and an IC50 (HBeAg) of 6.29 µM.
In the case of `O=C(NC1CC2(C1)CC(c1nc3cc(Cl)ccc3o1)C2)c1ccc(Cl)o1` (stereo not drawn) [Example 6, 5-chloro-N-[6-(5-chloro-1,3-benzoxazol-2-yl)spiro[3.3]heptan-2-yl]furan-2-carboxamide], the CC50 at 144 h [1] is reported as > 100 µM, the IC50 (HBsAg) is reported as 2.77 µM and the IC50 (HBeAg) is reported as 2.08 µM.
`CC(C)c1ccc(C(=O)NC2CC3(C2)CC(c2nc4cc(Cl)ccc4o2)C3)o1` (stereo not drawn) [Example 7, N-[6-(5-chloro-1,3-benzoxazol-2-yl)spiro[3.3]heptan-2-yl]-5-isopropyl-furan-2-carboxamide] showed a CC50 at 144 h [1] of 85.9 µM, an IC50 (HBsAg) of 3.57 µM and an IC50 (HBeAg) of 1.34 µM.
`COc1ccc(C(=O)NC2CC3(C2)CC(c2nc4cc(Cl)ccc4o2)C3)o1` (stereo not drawn) [Example 8, N-[6-(5-chloro-1,3-benzoxazol-2-yl)spiro[3.3]heptan-2-yl]-5-methoxy-furan-2-carboxamide] showed a CC50 at 144 h [1] of 94.2 µM, an IC50 (HBsAg) of 7.96 µM and an IC50 (HBeAg) of 5.84 µM.
Compound `COCc1ccc(C(=O)NC2CC3(C2)CC(c2nc4cc(Cl)ccc4o2)C3)o1` (stereo not drawn) [Example 9, N-[6-(5-chloro-1,3-benzoxazol-2-yl)spiro[3.3]heptan-2-yl]-5-(methoxymethyl)furan-2-carboxamide] has a CC50 at 144 h [1] of 91 µM, an IC50 (HBsAg) of 1.57 µM and an IC50 (HBeAg) of 1.01 µM.
For `O=C(NC1CC2(C1)CC(c1nc3cc(Cl)ccc3o1)C2)c1ccc(C(=O)C2CC2)o1` (stereo not drawn) [Example 10, N-[6-(5-chloro-1,3-benzoxazol-2-yl)spiro[3.3]heptan-2-yl]-5-(cyclopropanecarbonyl)furan-2-carboxamide], the CC50 at 144 h [1] was 96.1 µM, the IC50 (HBsAg) was 3.35 µM and the IC50 (HBeAg) was 2.94 µM.
For `NC(=O)c1ccc(C(=O)NC2CC3(C2)CC(c2nc4cc(Cl)ccc4o2)C3)o1` (stereo not drawn) [Example 11, N2-[6-(5-Chloro-1,3-benzoxazol-2-yl)spiro[3.3]heptan-2-yl]furan-2,5-dicarboxamide], the CC50 at 144 h [1] was > 10 µM, the IC50 (HBsAg) was 5.88 µM and the IC50 (HBeAg) was 5.22 µM.
Compound `O=C(NC1CC2(C1)CC(c1nc3cc(Cl)ccc3o1)C2)c1cc(C(F)(F)F)n[nH]1` (stereo not drawn) [Example 12, N-[6-(5-chloro-1,3-benzoxazol-2-yl)spiro[3.3]heptan-2-yl]-3-(trifluoromethyl)-1H-pyrazole-5-carboxamide] has a CC50 at 144 h [1] of 30.2 µM, an IC50 (HBsAg) of 3.96 µM and an IC50 (HBeAg) of 6.86 µM.
For `Cn1cc(C(=O)NC2CC3(C2)CC(c2nc4cc(Cl)ccc4o2)C3)cn1` (stereo not drawn) [Example 13, N-[6-(5-chloro-1,3-benzoxazol-2-yl)spiro[3.3]heptan-2-yl]-1-methyl-pyrazole-4-carboxamide], the CC50 at 144 h [1] was > 100 µM, the IC50 (HBsAg) was 9.81 µM and the IC50 (HBeAg) was 6.2 µM.
Compound `C[S+]([O-])c1ccc(C(=O)NC2CC3(C2)CC(c2nc4cc(Cl)ccc4o2)C3)o1` (stereo not drawn) [Example 14, N-[6-(5-chloro-1,3-benzoxazol-2-yl)spiro[3.3]heptan-2-yl]-5-methylsulfinyl-furan-2-carboxamide] has a CC50 at 144 h [1] of 76.5 µM, an IC50 (HBsAg) of 1.61 µM and an IC50 (HBeAg) of 0.854 µM.
`CS(=O)(=O)c1ccc(C(=O)NC2CC3(C2)CC(c2nc4cc(Cl)ccc4o2)C3)o1` (stereo not drawn) [Example 15, N-[6-(5-chloro-1,3-benzoxazol-2-yl)spiro[3.3]heptan-2-yl]-5-methylsulfonyl-furan-2-carboxamide] showed a CC50 at 144 h [1] of 79 µM, an IC50 (HBsAg) of 1.95 µM and an IC50 (HBeAg) of 1.17 µM.
With `CCS(=O)(=O)c1ccc(C(=O)NC2CC3(C2)CC(c2nc4cc(Cl)ccc4o2)C3)o1` (stereo not drawn) [Example 16, N-[6-(5-chloro-1,3-benzoxazol-2-yl)spiro[3.3]heptan-2-yl]-5-ethylsulfonyl-furan-2-carboxamide] the CC50 at 144 h [1] was 74 µM, the IC50 (HBsAg) was 1.53 µM and the IC50 (HBeAg) was 1.03 µM.
For `O=C(NC1CC2(C1)CC(c1nc3cc(Cl)ccc3o1)C2)c1ccc(S(=O)(=O)C2CC2)o1` (stereo not drawn) [Example 17, N-[6-(5-chloro-1,3-benzoxazol-2-yl)spiro[3.3]heptan-2-yl]-5-cyclopropylsulfonyl-furan-2-carboxamide], the CC50 at 144 h [1] was 89.9 µM, the IC50 (HBsAg) was 0.275 µM and the IC50 (HBeAg) was 0.177 µM.
With `O=C(NC1CC2(C1)CC(c1nc3cc(Cl)ccc3o1)C2)c1ccc(S(=O)(=O)C2COC2)o1` (stereo not drawn) [Example 18, N-[6-(5-chloro-1,3-benzoxazol-2-yl)spiro[3.3]heptan-2-yl]-5-(oxetan-3-ylsulfonyl)furan-2-carboxamide] the CC50 at 144 h [1] was 72.1 µM, the IC50 (HBsAg) was 3.27 µM and the IC50 (HBeAg) was 1.81 µM.
With `O=C(NC1CC2(C1)CC(c1nc3cc(Cl)ccc3o1)C2)c1ccc([S+]([O-])CC2CC2)o1` (stereo not drawn) [Example 19, N-[6-(5-chloro-1,3-benzoxazol-2-yl)spiro[3.3]heptan-2-yl]-5-(cyclopropylmethylsulfinyl)furan-2-carboxamide] the CC50 at 144 h [1] was 94.5 µM, the IC50 (HBsAg) was 0.036 µM and the IC50 (HBeAg) was 0.045 µM.
`O=C(NC1CC2(C1)CC(c1nc3cc(Cl)ccc3o1)C2)c1ccc(S(=O)(=O)CC2CC2)o1` (stereo not drawn) [Example 20, N-[6-(5-chloro-1,3-benzoxazol-2-yl)spiro[3.3]heptan-2-yl]-5-(cyclopropylmethylsulfonyl)furan-2-carboxamide] showed a CC50 at 144 h [1] of 89.2 µM, an IC50 (HBsAg) of 0.445 µM and an IC50 (HBeAg) of 0.18 µM.
Compound `CC(C)C[S+]([O-])c1ccc(C(=O)NC2CC3(C2)CC(c2nc4cc(Cl)ccc4o2)C3)o1` (stereo not drawn) [Example 21, N-[6-(5-chloro-1,3-benzoxazol-2-yl)spiro[3.3]heptan-2-yl]-5-isobutylsulfinyl-furan-2-carboxamide] has a CC50 at 144 h [1] of 92.4 µM, an IC50 (HBsAg) of 0.372 µM and an IC50 (HBeAg) of 0.314 µM.
For `CC(C)CS(=O)(=O)c1ccc(C(=O)NC2CC3(C2)CC(c2nc4cc(Cl)ccc4o2)C3)o1` (stereo not drawn) [Example 22, N-[6-(5-chloro-1,3-benzoxazol-2-yl)spiro[3.3]heptan-2-yl]-5-isobutylsulfonyl-furan-2-carboxamide], the CC50 at 144 h [1] was 75.6 µM, the IC50 (HBsAg) was 0.506 µM and the IC50 (HBeAg) was 0.264 µM.
In the case of `O=C(NC1CC2(C1)CC(c1nc3cc(Cl)ccc3o1)C2)c1ccc(S(=O)(=O)CC2CCC2)o1` (stereo not drawn) [Example 23, N-[6-(5-chloro-1,3-benzoxazol-2-yl)spiro[3.3]heptan-2-yl]-5-(cyclobutylmethylsulfonyl)furan-2-carboxamide], the CC50 at 144 h [1] is reported as > 100 µM, the IC50 (HBsAg) is reported as 0.321 µM and the IC50 (HBeAg) is reported as 0.883 µM.
